Key:
[1] = test system: sodium channels; experiment: patch clamp in whole cell configuration on DUM neurons; type: cell-based, cockroaches
[2] = after a cumulative dose of 750-850 mg/m^2; cited from earlier work
[3] = test system: calcium channels; experiment: electrophysiological study of the effect on calcium channels; type: cell-based, cockroaches
Description: An electrophysiological study was carried out in vitro by: • a) current and voltage clamp techniques on axon isolated from cockroaches with the double oil separation technique, • b) patch clamp techniques in whole cell configuration on DUM neurons (dorsal unpair median neuron) from cockroaches (DEA Laurence Gamelin, Etude de la neurotoxicité d'un dérivé du platine, l'oxaliplatine, par une approche électrophysiologique, Paris VII (1999)).
Indeed, BAPTA, a calcium chelator, gave an identical sodium channel inhibition curve. […] This blocking of the sodium channels causes abnormalities in the action potential of the neuron, that is to say neuronal depolarization disorders and potentially disturbances in the transmission of the impulse.

[4] = oxalate and ions in plasma and urine of patients treated with oxaliplatin
[5] = cited from earlier work
[6] = clinical study: prevention of the neurotoxicity of oxaliplatin by calcium and magnesium infusion (103 treatments)
[7] = clinical cases 1 to 3: oxaliplatin cycles with or without calcium and magnesium infusion
[8] = test system: potassium ion currents; experiment: current and voltage clamp on axon isolated from cockroaches (double oil separation technique); type: cell-based; details: applied externally; isolated cockroach axon
[9] = test system: sodium ion currents; experiment: as above; type: cell-based; details: applied externally; isolated cockroach axon
[10] = patients treated with oxaliplatin
[11] = case 3, C6, without calcium and magnesium
[12] = case 3, cycles C3, C4, C5, without calcium and magnesium

## O=C(O)CN(CC(=O)O)c1ccccc1OCCOc1ccccc1N(CC(=O)O)CC(=O)O [BAPTA]
[1]; calcium chelator tested
  sodium channel inhibition curve compared with oxaliplatin: identical

## N[C@@H]1CCCC[C@H]1N.O=C([O-])C(=O)[O-].[Pt+2] (relative stereo) [oxaliplatin, 1,2-diamine cyclohexane (trans-1)oxalatoplatinum]
[2]
  frequency of the grade 3 neuropathy: 15-20%
[3]
  effect on the calcium channels: no significant effect
[4]; [10]
  oxalate in plasma (normally undetectable): significant concentrations
  plasma concentrations of calcium (total, ionized) and of magnesium (total and overall): without any variation
[4]; within 5 hours following the start of infusion
  calciuria, kaliuria and magnesuria: rise
[4]; within 5 hours following the start of infusion of oxaliplatin
  urinary elimination of oxalate: substantial
[5]; FIG. 1
  share penetrating unchanged into the cell: 70%
[5]; first stage of metabolism
  share of oxalate release / dichlorodachplatin formation carried out in the intracellular medium: 70%
  share of oxalate release / dichlorodachplatin formation carried out in the plasma medium: 30%
[6]; after prolonged treatment, even with chronic persistent neuropathy, combined with infusion of calcium and magnesium
  total dose after which oxaliplatin can be reintroduced: up to 780 mg/m^2
[6]; cycle 6, in the absence of calcium and magnesium
  patients with no neurological manifestation: 12%
[6]; group of patients without calcium or magnesium
  discontinuations linked to progression of the disease: 44%
[6]; group without calcium and magnesium
  toxic causes for discontinuation: neuropathy: 56%
[7]; case 2, cycle 1, 5-FU, folinic acid + oxaliplatin 130 mg/m^2/21 days, no calcium and magnesium
  distal and perioral paresthesia: grade 3
[7]; case 2, cycle 1, no calcium and magnesium
  diarrhea: grade 3
[7]; [11]
  neuropathy, NCI: grade 3
  neuropathy, specific scale: 3
[7]; case 3, after C6, without calcium and magnesium
  duration of the incapacitating neuropathy: 18 months
[7]; case 3, cycles 1 and 2, 5-FU, folinic acid + oxaliplatin 130 mg/m^2/3 weeks without calcium and magnesium
  distal, perioral paresthesia, NCI: grade 2
[7]; case 3, cycles 1 and 2, without calcium and magnesium
  distal, perioral paresthesia, specific scale: grade 1
[7]; [12]
  neuropathy, NCI: grade 2
  neuropathy, specific scale: 2
[8]
  modification in the potassium ion currents: no significant modification
[1]; current clamp, whole cell patch clamp, DUM neurons
  amplitude of the action potential over time: reduction in the amplitude of the action potential over time
[1]; voltage clamp, DUM neurons
  plateau of sodium current reduction (inhibition): 60%
[1]; voltage clamp, over 10 minutes
  reduction in the sodium current: 50%
[9]
  modification in the sodium ion currents: no significant modification

## [Ca] [calcium]
[6]; calcium by the oral route
  reduction of risk of neurological manifestations at a distance from oxaliplatin administration: effective

## NC1CCCCC1N.[Cl][Pt][Cl] (centres unmarked) [Dach platin, diaminecyclohexaneplatinum]
[1]
  effect of other platinum salts (sodium channels): no effect

## N.N.[Cl][Pt][Cl] [cisplatin]
[1]
  effect of other platinum salts (sodium channels): no effect

## N.N.O=C([O-])C1(C(=O)[O-])CCC1.[Pt+2] [carboplatin]
[1]
  effect of other platinum salts (sodium channels): no effect
